The numbers were not newly measured in US20230139565A1 (GLANIS PHARMACEUTICALS, INC., priority 2020, published 2023), which cites them from elsewhere.

Experiment in data set [1]: not given
The source holds these as a separate data set.

Data set [2] relates to albumin and aphal-acid glycoprotein.

Where a name gives a salt, the structure may show the parent alone.

In the case of `CCN(CCO)CCCC(C)Nc1ccnc2cc(Cl)ccc12` (stereo not shown) [Hydroxychloroquine sulfate], the “solubility in alcohol, chloroform, and in ether” value (alcohol, chloroform, ether) is on record as “practically insoluble”. In addition, the solubility in water entry (water) was “freely soluble”.
As to `CCN(CCO)CCCC(C)Nc1ccnc2cc(Cl)ccc12` (stereo not shown) [HCQ, Hydroxychloroquine], the “terminal half-life based on blood concentration” value in data set [1] (blood) was 30 to 60 days. Further, the “time of peak concentration” value in data set [1] (following 200 mg oral dose) was “around 3 hours”. The “peak concentration in blood” value in data set [1] (following 200 mg oral dose, blood) is “around 129.6 ng/ml”. Also, the “plasma concentration (peak)” value in data set [1] (following 200 mg oral dose, plasma) is “around 50.3 ng/ml”. Further, in data set [1] (in vivo), the half-life is approximately 2.08 days and the volume of distribution result is “high volume of distribution”. Further, in data set [1] (oral tablet), the oral bioavailability entry is given as “about 75%”. Moreover, the protein binding in data set [2] is recorded as approximately 40%.
